Laboratory results as given in patent US10329261B1, “Method of preparing 6-chloro-5-nitro-2,4-diaminopyrimidine and its application thereof” (XI'AN TAIKOMED PHARMACEUTICAL TECHNOLOGY CO., LTD., priority 2018, dated 2019).
One block for each compound: values may come before it.

Legend:
K-562 leukemia = experiment: Inhibition test of nude mice inoculated with K-562 cell line; type: in vivo; settings: for Tumor weight (X ± SE) / Inhibition (%): ip × 7, nude mice with K-562; for Tumor weight (X ± SE): in g (unit assumed); for Inhibition (%): tumor inhibition rate
Experimental: Inhibition Test of Nude Mice Inoculated with K-562 Cell Line
Test compounds: 6-chloro-5-nitro-2,4-diaminopyrimidine and imatinib dissolved in normal saline.
Administration route: intraperitoneal injection (ip).
Test animals: nude mice, SPF level.
Cell line: chronic myeloid leukemia cell line K-562, from the Affiliated Hospital of Guangdong Medical College
Test method: 50 nude mice weighing 18-22 grams, both male and female. The K-562 cell was diluted to a final concentration of 10 million cells/mL for leukemia cells; each mouse was inoculated subcutaneously with 0.2 mL (containing […] leukemia cells). On the next day, the mice were randomly divided to 5 groups: 6-chloro-5-nitro-2,4-diaminopyrimidine group (dose: 3 mg/kg), 6-chloro-5-nitro-2,4-diaminopyrimidine group (dose: 8 mg/kg), 6-chloro-5-nitro-2,4-diaminopyrimidine group (dose: 20 mg/kg), positive control group (imatinib, 8 mg/kg) and blank control group. The 6-chloro-5-nitro-2,4-diaminopyrimidine groups and the positive control group were administered once a day for 7 consecutive days; the blank control group was given a corresponding volume of NS liquid. No test compounds were given for one day after the last dose. Animals were sacrificed by cervical dislocation, and weighed and dissected to weigh. The tumor weights were calculated for each group. The leukemia inhibition rate was calculated according to the following formula. Tumor inhibition rate=(mean tumor weight in the control group−average tumor weight in the administration group)/mean tumor weight in the control group×100%,

Dami = experiment: CCK8 assay, growth inhibition of leukemia cells; type: cell-based, human; settings: for inhibition at 1 µM / inhibition at 5 µM / inhibition at 10 µM / inhibition at 50 µM / inhibition at 100 µM: Homo sapiens, 48 hours, read-out: Inhibition Rate % (X ± SD, n = 5); for inhibition at 1 µM: 1 μmol/L; for inhibition at 5 µM: 5 μmol/L; for inhibition at 10 µM: 10 μmol/L; for inhibition at 50 µM: 50 μmol/L; for inhibition at 100 µM: 100 μmol/L
Experimental: (§1) Measuring the Inhibitory Effect of 6-Chloro-5-Nitro-2,4-Diaminopyrimidine on the Growth of Six Leukemia Cells by CCK8 Assay
(§2) Cell lines: HL-60 (acute myeloid leukemia), Jurkat (acute T cell leukemia), K562 (chronic myeloid leukemia), EOL-1 (human eosinophil leukemia), Dami (human megakaryocytic leukemia), 6T-CEM (human T cell leukemia) were provided by the Affiliated Hospital of Guangdong Medical College. The cells were cultured in RPMI1640 medium containing 10% fetal bovine serum, penicillin 100 U/mL, streptomycin 100 mg/L, at 37° C., 5% CO2, and saturated humidity, in incubator, and logarithmic growth phase cells were used for experiments.
(§3) Test compounds: Imatinib solution and 6-chloro-5-nitro-2,4-diaminopyrimidine solution were prepared with physiological saline, and the final concentrations of the compounds were 1, 5, 10, 50, and 100 μmol/L.
(§4) Test method: Take the logarithmic growth leukemia cell lines, count, and inoculate at a density of 1×10^5/mL in a 96-well culture plate, 100 μL per well. After 24 hours of culture, 100 μL medium containing the different concentrations (double the target/final concentration) of compounds was added to each well. The medium containing the highest concentration of DMSO was used as a control. After 48 hours, 20 μL of CCK8 coloring solution was added to each well, the color was developed at 37° C., and OD450 was measured with a microplate reader until the absorbance was about 1.5. The inhibition rate was calculated by the following formula. Inhibition Rate (%)=(1−absorbance of the test compound/absorbance of the control)×100%

EOL-1 = experiment: CCK8 assay, growth inhibition of leukemia cells; type: cell-based, human; settings: for inhibition at 1 µM / inhibition at 5 µM / inhibition at 10 µM / inhibition at 50 µM / inhibition at 100 µM: Homo sapiens, EOL1, 48 hours, read-out: Inhibition Rate % (X ± SD, n = 5); for inhibition at 1 µM: EOL-1, 1 μmol/L; for inhibition at 5 µM: EOL-1, 5 μmol/L; for inhibition at 10 µM: EOL-1, 10 μmol/L; for inhibition at 50 µM: EOL-1, 50 μmol/L; for inhibition at 100 µM: EOL-1, 100 μmol/L
Experimental: as §1, §2, §3, §4

6T-CEM = experiment: CCK8 assay, growth inhibition of leukemia cells; type: cell-based, human; settings: for inhibition at 1 µM / inhibition at 5 µM / inhibition at 10 µM / inhibition at 50 µM / inhibition at 100 µM: Homo sapiens, 48 hours, read-out: Inhibition Rate % (X ± SD, n = 5); for inhibition at 1 µM: 1 μmol/L; for inhibition at 5 µM: 5 μmol/L; for inhibition at 10 µM: 10 μmol/L; for inhibition at 50 µM: 50 μmol/L; for inhibition at 100 µM: 100 μmol/L
Experimental: as §1, §2, §3, §4

HL-60 = experiment: CCK8 assay, growth inhibition of leukemia cells; type: cell-based; settings: for inhibition at 1 µM / inhibition at 5 µM / inhibition at 10 µM / inhibition at 50 µM / inhibition at 100 µM: Homo sapiens, 48 hours, read-out: Inhibition Rate % (X ± SD, n = 5); for inhibition at 1 µM: HL-60, 1 μmol/L; for inhibition at 5 µM: HL-60, 5 μmol/L; for inhibition at 10 µM: HL-60, 10 μmol/L; for inhibition at 50 µM: HL-60, 50 μmol/L; for inhibition at 100 µM: HL-60, 100 μmol/L
Experimental: as §1, §2, §3, §4

Jurkat = experiment: CCK8 assay, growth inhibition of leukemia cells; type: cell-based; settings: for inhibition at 1 µM / inhibition at 5 µM / inhibition at 10 µM / inhibition at 50 µM / inhibition at 100 µM: Homo sapiens, 48 hours, read-out: Inhibition Rate % (X ± SD, n = 5); for inhibition at 1 µM: 1 μmol/L; for inhibition at 5 µM: 5 μmol/L; for inhibition at 10 µM: 10 μmol/L; for inhibition at 50 µM: 50 μmol/L; for inhibition at 100 µM: 100 μmol/L
Experimental: as §1, §2, §3, §4

K-562 = experiment: CCK8 assay, growth inhibition of leukemia cells; type: cell-based; settings: for inhibition at 1 µM / inhibition at 5 µM / inhibition at 10 µM / inhibition at 50 µM / inhibition at 100 µM: Homo sapiens, K562, 48 hours, read-out: Inhibition Rate % (X ± SD, n = 5); for inhibition at 1 µM: K-562, 1 μmol/L; for inhibition at 5 µM: K-562, 5 μmol/L; for inhibition at 50 µM: K-562, 50 μmol/L; for inhibition at 100 µM: K-562, 100 μmol/L
Experimental: as §1, §2, §3, §4

- Number of mice before and after (K-562 leukemia; 8 mg/kg, ip × 7): 10/10
- Mouse weight after (K-562 leukemia; 8 mg/kg, ip × 7, weight before 19.5): 20.4
Structure (SMILES): Cc1ccc(NC(=O)c2ccc(CN3CCN(C)CC3)cc2)cc1Nc1nccc(-c2cccnc2)n1 [Imatinib, reference compound]
- Tumor weight (X ± SE) (K-562 leukemia; 8 mg/kg): 0.93
- Inhibition (%) (K-562 leukemia; 8 mg/kg): 74.02%
- inhibition at 1 µM (Dami): 61.3%
- inhibition at 5 µM (Dami): 65.4%
- inhibition at 10 µM (Dami): 69.3%
- inhibition at 50 µM (Dami): 82.1%
- inhibition at 100 µM (Dami): 89.4%
- inhibition at 1 µM (EOL-1): 63.6%
- inhibition at 5 µM (EOL-1): 66.2%
- inhibition at 10 µM (EOL-1): 68.4%
- inhibition at 50 µM (EOL-1): 79.1%
- inhibition at 100 µM (EOL-1): 86.4%
- inhibition at 1 µM (6T-CEM): 68.2%
- inhibition at 5 µM (6T-CEM): 70.8%
- inhibition at 10 µM (6T-CEM): 74.9%
- inhibition at 50 µM (6T-CEM): 86.5%
- inhibition at 100 µM (6T-CEM): 91.3%
- inhibition at 1 µM (HL-60): 62.2%
- inhibition at 5 µM (HL-60): 69.5%
- inhibition at 10 µM (HL-60): 64.6%
- inhibition at 50 µM (HL-60): 83.1%
- inhibition at 100 µM (HL-60): 84.5%
- inhibition at 1 µM (Jurkat): 66.7%
- inhibition at 5 µM (Jurkat): 71%
- inhibition at 10 µM (Jurkat): 73.3%
- inhibition at 50 µM (Jurkat): 85.7%
- inhibition at 100 µM (Jurkat): 90.9%
- inhibition at 1 µM (K-562): 66.4%
- inhibition at 5 µM (K-562): 67.9%
- inhibition at 10 µM (K-562; K-562, 10 μmol/L): 71.6%
- inhibition at 50 µM (K-562): 83.1%
- inhibition at 100 µM (K-562): 88.3%

Structure (SMILES): Nc1nc(N)c([N+](=O)[O-])c(Cl)n1 [6-chloro-5-nitro-2,4-diaminopyrimidine]
- Tumor weight (X ± SE) (K-562 leukemia; 3 mg/kg): 1.84
- Tumor weight (X ± SE) (K-562 leukemia; 8 mg/kg): 0.87
- Tumor weight (X ± SE) (K-562 leukemia; 20 mg/kg): 0.74
- Inhibition (%) (K-562 leukemia; 3 mg/kg): 48.41%
- Inhibition (%) (K-562 leukemia; 8 mg/kg): 75.18%
- Inhibition (%) (K-562 leukemia; 20 mg/kg): 79.34%
- inhibitory effect on the cell line (in words) (Dami): does not show any inhibition
- inhibition at 1 µM (Dami): -14.2%
- inhibition at 5 µM (Dami): -17.7%
- inhibition at 10 µM (Dami): -22%
- inhibition at 50 µM (Dami): -26%
- inhibition at 100 µM (Dami): -30.3%
- inhibitory effect on the cell line (in words) (EOL-1; EOL-1): does not show any inhibition
- inhibition at 1 µM (EOL-1): -22.4%
- inhibition at 5 µM (EOL-1): -23%
- inhibition at 10 µM (EOL-1): -23.3%
- inhibition at 50 µM (EOL-1): -19.3%
- inhibition at 100 µM (EOL-1): -18.9%
- inhibitory effect on the cell line (in words) (6T-CEM): does not show any inhibition
- inhibition at 1 µM (6T-CEM): -17.5%
- inhibition at 5 µM (6T-CEM): -21.1%
- inhibition at 10 µM (6T-CEM): -25.5%
- inhibition at 50 µM (6T-CEM): -28.1%
- inhibition at 100 µM (6T-CEM): -31%
- inhibitory effect on the cell line (in words) (HL-60; HL-60): does not show any inhibition
- inhibition at 1 µM (HL-60): 3.87%
- inhibition at 5 µM (HL-60): -1.12%
- inhibition at 10 µM (HL-60): -7.66%
- inhibition at 50 µM (HL-60): -9.26%
- inhibition at 100 µM (HL-60): -14.2%
- inhibitory effect on the cell line (in words) (Jurkat): does not show any inhibition
- inhibition at 1 µM (Jurkat): -13.5%
- inhibition at 5 µM (Jurkat): -15.9%
- inhibition at 10 µM (Jurkat): -27%
- inhibition at 50 µM (Jurkat): -28.1%
- inhibition at 100 µM (Jurkat): -30%
- inhibition at 1 µM (K-562): 45.5%
- inhibition at 5 µM (K-562): 61.5%
- inhibition at 10 µM (K-562; K-562, 10 μmol/L): 76.8%
- inhibition at 50 µM (K-562): 77.3%
- inhibition at 100 µM (K-562): 78.4%
- inhibition rate compared with imatinib (K-562; K-562, 10 μmol/L): exceeds that of imatinib
- inhibitory effect on the cell line (in words) (K-562; K-562 cell line): good inhibitory effect
- selectivity among the six leukemia cell lines (in words) (K-562; K-562 versus HL-60, Jurkat, EOL-1, Dami, 6T-CEM): selectively inhibits chronic myelogenous leukemia cell line
